# The source made the active and inactive calls.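 Rule for the calls: active = fitted curve reaches 40% activation below the top valid tested dose, in every test run; inconclusive = test runs disagree on the call; inactive = the rest, including effects opposite to the expected direction.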
# Test: endothelial E-selectin upregulation by compounds – imaging, HUVEC, cherry-picked samples, dose response (AID 977605);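 note: signal is the share of imaged cells scored positive for E-selectin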
# Settings: HUVEC E-selectin immunostaining, at 19.5 µM (top of the series)
row,Compound,activation
1,NC(C(=O)O)c1cc(=O)[nH]o1 (configuration not stated),0.044% (inactive)
2,Cc1ccc(-c2nc3ccccc3c(=O)n2-c2cccc(O)c2)cc1,0.249% (inactive)

# Same assay, conditions: HUVEC E-selectin immunostaining, at 19.5 µM (top of the series), percent of TNF-alpha response over vehicle
row,Compound,activation
1,O=C(Nc1cc(C(F)(F)F)cc(C(F)(F)F)c1)Nc1cnn(-c2ccc([N+](=O)[O-])cc2)c1C(F)(F)F,0.091% (inactive)
2,Cc1[nH]c(=O)c(C#N)cc1-c1ccncc1,-0.055% (inactive)
3,CCCN(C)C[C@@H]1Oc2ncc(-c3ccccc3)cc2C(=O)N([C@H](C)CO)C[C@@H]1C,-0.269% (inactive)
4,CC(C)(C)CC(=O)Nc1ccc(-c2cn3cccnc3n2)cc1,0.057% (inactive)
5,CCCCOCC1CN(CCCC)S(=O)(=O)c2c(Oc3ccc(C(C)C)cc3)cccc2O1 (configuration not stated),-0.279% (inactive)
6,C[C@@H]1CN([C@@H](C)CO)C(=O)c2cc(NC(=O)Nc3ccc(C(F)(F)F)cc3)ccc2O[C@H]1CN(C)S(=O)(=O)c1ccccc1,-0.17% (inactive)
7,CCOC(=O)c1sc(NC(=O)CN2C(=O)C3CC=CCC3C2=O)nc1C (configuration not stated),0.503% (inactive)
8,C[C@H](CO)N1C[C@H](C)[C@H](CN(C)S(=O)(=O)c2ccc(Cl)cc2)Oc2c(NC(=O)C3CCCCC3)cccc2C1=O,0.576% (inactive)
9,C[C@@H]1CN([C@@H](C)CO)C(=O)c2cc(NC(=O)Cn3cnnn3)ccc2O[C@H]1CN(C)Cc1ccc(Oc2ccccc2)cc1,6.68% (inactive)
10,COc1ccc(OC)c(NC(=O)c2ccc(CSc3ncccn3)cc2)c1,0.128% (inactive)
11,COc1ccc(CNS(=O)(=O)c2ccc3c(c2)C(C)(C)C(=O)N3C)cc1,0.021% (inactive)
12,C[C@H](CO)N1C[C@H](C)[C@H](CN(C)S(=O)(=O)c2ccc(Cl)cc2)Oc2ccc(NC(=O)Cc3ccccc3)cc2C1=O,-0.076% (inactive)
13,C[C@H](CO)N1C[C@H](C)[C@H](CN(C)Cc2ccc3c(c2)OCO3)Oc2ccc(NC(=O)Cn3cnnn3)cc2C1=O,2.56% (inactive)
14,COc1cc(OC)cc(N(C(=O)c2snc(C(N)=O)c2N)C(C(=O)NCC2CCCO2)c2ccc(C)o2)c1 (configuration not stated),-0.112% (inactive)
15,c1ccc(Nc2nnc(-c3cccnc3)s2)cc1,0.863% (inactive)
16,Cc1noc(C)c1S(=O)(=O)Nc1ccc2c(c1)C(=O)N([C@@H](C)CO)C[C@H](C)[C@H](CN(C)Cc1ccc3c(c1)OCO3)O2,-0.065% (inactive)
17,C[C@@H]1CN([C@@H](C)CO)C(=O)Cc2cc(NC(=O)C3CC3)ccc2O[C@@H]1CN(C)C(=O)Nc1ccccc1,0.276% (inactive)
18,COc1ccc(OCCN2CCN(S(=O)(=O)c3ccccc3C(F)(F)F)CC2)cc1,-0.023% (inactive)
19,CCCCCCOc1ccc(C(CC(N)=O)C(=O)O)cc1 (configuration not stated),-0.269% (inactive)
20,Cc1ccc(NCc2n[nH]c(=S)n2-c2ccccc2)cc1,1.12% (inactive)

row,Compound,activation
1,Cc1cccc(NC(=O)CCCN2C(=O)C(c3ccccc3)Oc3cccnc32)c1C (configuration not stated),0.811% (inactive)
2,CCOc1ccc(S(=O)(=O)N2CCC(C(=O)NCc3cccnc3)CC2)cc1,-0.239% (inactive)
3,CC(=O)NC(Cc1c[nH]c2ccccc12)C(=O)NCCc1ccccn1 (configuration not stated),0.144% (inactive)
4,Cc1ccc(S(=O)(=O)N(C)C[C@@H]2Oc3ccc(N(C)C)cc3C(=O)N([C@H](C)CO)C[C@H]2C)cc1,0.022% (inactive)
5,CC(C)(C)S(=O)(=O)c1cnc(-c2cnccn2)nc1N,-0.028% (inactive)
6,Cc1c(O)nc2ccccn2c1=O,0.171% (inactive)
7,COc1ccc(C(=O)Nc2ccc3c(c2)OCCO3)cc1[N+](=O)[O-],0.055% (inactive)
8,COc1ccc(S(=O)(=O)N(C)C[C@H]2Oc3ccc(NC(=O)Nc4c(C)noc4C)cc3C(=O)N([C@H](C)CO)C[C@H]2C)cc1,0.58% (inactive)
9,C[C@@H]1CN([C@H](C)CO)C(=O)c2cc(NC(=O)CCN3CCOCC3)ccc2O[C@H]1CN(C)C(=O)Nc1ccc(C(F)(F)F)cc1,-0.038% (inactive)
10,Cc1ccc(S(=O)(=O)NNC(=O)c2cccc(O)c2)cc1,-0.007% (inactive)
11,CN(Cc1ccsc1)C(=O)CCc1nnc(CCCc2ccccc2)o1,1.14% (inactive)
12,COc1ccc(CN(C)C[C@H]2Oc3ccc(N(C)C)cc3CC(=O)N([C@H](C)CO)C[C@H]2C)cc1,0.315% (inactive)
13,COc1ccc(CN(C)C[C@H]2Oc3ccc(NC(=O)c4ccncc4)cc3C(=O)N([C@H](C)CO)C[C@@H]2C)cc1,0.118% (inactive)
14,CC(C)NC(=O)N(C)C[C@@H]1Oc2ccc(NC(=O)CCC(F)(F)F)cc2CC(=O)N([C@@H](C)CO)C[C@H]1C,0.007% (inactive)
15,O=C(Nc1cccc(C(F)(F)F)c1)c1cc[n+]([O-])cc1,0.066% (inactive)
16,CC(C)NC(=O)N(C)C[C@@H]1Oc2c(NC(=O)c3cnccn3)cccc2C(=O)N([C@@H](C)CO)C[C@@H]1C,-0.012% (inactive)
17,COc1ccc(S(=O)(=O)Nc2ccc3c(c2)C(=O)N([C@@H](C)CO)C[C@H](C)[C@@H](CN(C)Cc2ccc(Cl)c(Cl)c2)O3)cc1,-0.097% (inactive)
18,C[C@H]1CN([C@@H](C)CO)C(=O)c2cc(NC(=O)Nc3ccc4c(c3)OCO4)ccc2O[C@@H]1CN(C)S(=O)(=O)c1ccc(F)cc1,-0.105% (inactive)
19,CCCNC(=O)N(C)C[C@H]1Oc2ncc(C3=CCCC3)cc2C(=O)N([C@H](C)CO)C[C@@H]1C,-0.163% (inactive)
20,C[C@H](CO)N1C[C@H](C)[C@H](CN(C)CC2CC2)Oc2ccc(NC(=O)Cc3ccccc3)cc2CC1=O,0.216% (inactive)

row,Compound,activation
1,C[C@H]1CN([C@@H](C)CO)C(=O)c2cccc(NC(=O)Nc3cccc4ccccc34)c2O[C@H]1CN(C)Cc1ccc(-c2ccccc2)cc1,0.067% (inactive)
2,O=C(CCC(=O)N1CCOCC1)Nc1ccc(Cl)c(Cl)c1,0.295% (inactive)
3,C[C@@H]1CN([C@H](C)CO)C(=O)c2cc(C3=CCCC3)cnc2O[C@H]1CN(C)C(=O)Nc1ccccc1,-0.157% (inactive)
4,C[C@@H]1CN([C@@H](C)CO)C(=O)c2cccc(NS(=O)(=O)c3ccc(Cl)cc3)c2O[C@H]1CN(C)C(=O)Nc1ccc2c(c1)OCO2,-0.05% (inactive)
5,C[C@H](CO)N1C[C@H](C)[C@H](CN(C)Cc2ccc(Oc3ccccc3)cc2)Oc2c(NS(C)(=O)=O)cccc2C1=O,3.2% (inactive)
6,COc1cccc(-c2cccc(-c3nc(C(=O)Nc4ccc(-c5ccccc5)cc4)cc4c3[C@@H](CCO)N(S(=O)C(C)(C)C)C4)c2)c1 (some centres not stated),1.45% (inactive)
7,C[C@H]1CN([C@@H](C)CO)C(=O)c2cc(NC(=O)Cn3cnnn3)ccc2O[C@H]1CN(C)S(=O)(=O)c1ccccc1,-0.003% (inactive)
8,COc1ccc(S(=O)(=O)N(C)C[C@H]2Oc3ccc(NC(=O)CCCN(C)C)cc3C(=O)N([C@@H](C)CO)C[C@@H]2C)cc1,-0.152% (inactive)
9,COc1ccc([C@H]2CC(=O)C[C@@H](CCn3nnc4ccccc43)O2)cc1,0.021% (inactive)
10,CC(C)NC(=O)N(C)C[C@@H]1Oc2c(NC(=O)c3ccc(-c4nccs4)cc3)cccc2C(=O)N([C@@H](C)CO)C[C@H]1C,1.61% (inactive)
11,CC(C)CC#Cc1cnc2c(c1)C(=O)N([C@H](C)CO)C[C@@H](C)[C@H](CN(C)C(=O)c1ccc3c(c1)OCO3)O2,-0.021% (inactive)
12,COc1ccc(NC(=O)N(C)C[C@H]2Oc3c(NS(=O)(=O)c4cn(C)cn4)cccc3C(=O)N([C@@H](C)CO)C[C@@H]2C)cc1,0.542% (inactive)
13,CC(C)(CN1CCCC1)NS(=O)(=O)c1ccc(Cl)cc1,-0.279% (inactive)
14,O=S(=O)(NCc1csc(-c2cccs2)n1)c1cccc(C(F)(F)F)c1,-0.123% (inactive)
15,C[C@@H]1CN([C@H](C)CO)C(=O)c2cccc(NC(=O)Nc3ccc(F)cc3)c2O[C@H]1CN(C)C(=O)NC1CCCCC1,0.496% (inactive)
16,N#CC1(NC(=O)CN2C(=O)c3ccccc3C2=O)CCCCC1,16.1% (inactive)
17,CC(C)NC(=O)N(C)C[C@@H]1Oc2ccc(NS(=O)(=O)c3cccs3)cc2CC(=O)N([C@H](C)CO)C[C@@H]1C,1.19% (inactive)
18,O=C(NCc1ccc(F)cc1)c1cc(C2CCCCN2C(=O)CCCc2ccccc2)on1 (configuration not stated),-0.164% (inactive)
19,Cc1noc(C)c1S(=O)(=O)N(C)C[C@@H]1Oc2ccc(NC(=O)Nc3ccc(F)cc3)cc2CC(=O)N([C@@H](C)CO)C[C@@H]1C,-0.013% (inactive)

# Same assay, conditions: HUVEC E-selectin immunostaining, at 21 µM (top of the series), percent of TNF-alpha response over vehicle
row,Compound,activation
1,COc1ccc(S(=O)(=O)Nc2ccc3c(c2)CC(=O)N([C@@H](C)CO)C[C@H](C)[C@@H](CN(C)C(=O)NC2CCCCC2)O3)cc1,0.142% (inactive)
2,C[C@H]1CN([C@@H](C)CO)C(=O)c2cccc(NC(=O)Nc3ccc(F)cc3)c2O[C@@H]1CN(C)C(=O)NC1CCCCC1,0.342% (inactive)
3,C[C@H]1CN([C@@H](C)CO)C(=O)c2cc(NC(=O)Nc3ccc(F)cc3)ccc2O[C@H]1CN(C)S(=O)(=O)c1cccs1,2.05% (inactive)
4,COc1ccc(S(=O)(=O)Nc2ccc3c(c2)C(=O)N([C@@H](C)CO)C[C@H](C)[C@H](CN(C)S(=O)(=O)c2ccc(Cl)cc2)O3)cc1,0.145% (inactive)
5,CC(C)NC(=O)Nc1ccc2c(c1)CC(=O)N([C@H](C)CO)C[C@H](C)[C@H](CN(C)Cc1ccc(Cl)c(Cl)c1)O2,0.284% (inactive)
6,COc1ccc(CN(C)C[C@H]2Oc3ccc(NC(=O)CCCN(C)C)cc3C(=O)N([C@H](C)CO)C[C@H]2C)cc1,-0.188% (inactive)
7,C[C@H](CO)N1C[C@H](C)[C@H](CN(C)S(C)(=O)=O)Oc2c(NS(C)(=O)=O)cccc2C1=O,-0.054% (inactive)
8,COc1ccc(S(=O)(=O)N(C)C[C@H]2Oc3ccc(NC(=O)c4ccncc4)cc3C(=O)N([C@H](C)CO)C[C@H]2C)cc1,4.32% (inactive)
9,COc1ccc(S(=O)(=O)N(C)C[C@@H]2Oc3ccc(NC(=O)CCCN(C)C)cc3C(=O)N([C@@H](C)CO)C[C@@H]2C)cc1,-0.143% (inactive)
10,COc1ccc(NC(=O)N(C)C[C@H]2Oc3ccc(NC(=O)Cc4cn(C)c5ccccc45)cc3C(=O)N([C@H](C)CO)C[C@@H]2C)cc1,7.04% (inactive)
11,C[C@H](CO)N1C[C@H](C)[C@@H](CN(C)S(C)(=O)=O)Oc2c(NC(=O)C3CCCCC3)cccc2C1=O,0.25% (inactive)
